Measured values reported in patent US20220127297A1, “Novel Antibacterial 3"-Derivatives Of 4,6-Disubstituted 2,5-Dideoxystreptamine Aminoglycoside Antibiotics” (AGILeBiotics B.V., priority 2018, published 2022).

Assays:
Experiment in all cases: MIC determination at Uppsala University
Type in all cases: cell-based
[1] = tested on: E. coli C1162; conditions: Escherichia coli, APH(3′)-Ia
Source text: (§1) 3.4.1 MIC Determination at Uppsala University (Sweden)
(§2) Tested reference compounds. Amikacin disulfate (Cat. No. A1774, Sigma Aldrich), Apramycin sulfate (Cat. No. A2024, Sigma Aldrich) and Gentamicin sulfate (Cat. No. G1914, Sigma Aldrich).
(§3) Bacterial strains/isolates. All assayed laboratory and clinical strains (P. aeruginosa PA01, A. baumanii ATCC 19606, A. baumanii 195N(a), A. baumanii 48F, E. coli C1162, E. coli C1181, M. morgannii S49 and P. stuartii B8-1) were from the IMI ND4BB ENABLE consortium strain collection. ATCC laboratory strains were acquired directly from the American Type Culture Collection. Clinical strains used were previously published (M Juhas, et al. J. Antimicrob. Chemother., 74 (4), 944-952 (2019); D. Hughes et al., Antimicrob. Agents Chemother., 47 (10), 3222-3232 (2003)) and were resistance genotyped within the ENABLE consortium.
(§4) Culture media and equipment. Water (Thermo Scientific, R05819); Mueller-Hinton II broth (BD Ref. 212322); sterile round-bottom 96-well plates (Thermo Scientific, 262162); Sensititre Nephelometer (ThermoFisher Scientific, V3011); 0.5 McFarland Standard (ThermoFisher Scientific, E1041); sterile polyester film (VWR, 391-1251).
(§5) Compound preparation. MIC assay procedure follows the CLSI M07 standard method (Clinical and Laboratory Standards Institute (CLSI); Methods for dilution antimicrobial susceptibility tests for bacteria that grow aerobically; approved standard—eleventh edition, M07-A10, Vol. 38, No. 2, 2018). Test compounds were received as solids and were dissolved in water to a concentration of 10 mg/mL of active compound. […] This solution was serially diluted in 2-fold steps in the first 10 columns of sterile round-bottom 96-well plates, while the final two columns were filled with Mueller-Hinton II broth without added compound for use as positive and negative growth controls.
(§6) Inoculum preparation. Inoculums were prepared by suspending several colonies freshly streaked culture of test strains in 5 mL of sterile 0.9% NaCl. The cell density of the inoculum solution was assessed and adjusted using a Sensititre Nephelometer and a 0.5 McFarland Standard. The inoculum was diluted 1:100 in Mueller-Hinton II broth and 50 μL of this inoculum solution was added to 50 μL of the test compound solutions yielding a concentration range of 64-0.125 μg/mL. The plates were sealed with sterile polyester film and stationarily incubated at 37° C. for 18 hours.
(§7) MIC determination. The MIC value was determined by visual inspection of bacterial growth within 96-well plates. The lowest concentration completely inhibiting growth was reported as the MIC for each strain and compound combination.

[2] = tested on: A. baumanii ATCC 19606; conditions: Acinetobacter baumannii, ATCC19606, AMEs: WT
Source text: as §1, §2, §3, §4, §5, §6, §7

[3] = tested on: A. baumanii 48F; conditions: Acinetobacter baumannii; A. boumanii 48F; ANT(2″)Ia, APH(3″)-Ib, APH(3′)-VIa, APH(6)-Id
Source text: as §1, §2, §3, §4, §5, §6, §7

[4] = tested on: E. coli C1181; conditions: Escherichia coli, ANT(3″)-Ia, APH(3′)-Ia
Source text: as §1, §2, §3, §4, §5, §6, §7

[5] = tested on: P. stuartii B8-1; conditions: Providencia stuartii, B81, AAC(3)-Ic, ANT (3″)Ia, APH(3′)-IIa, APH(3′)-IIb, APH(3′)-VI, APH(6)-Ic
Source text: as §1, §2, §3, §4, §5, §6, §7

[6] = tested on: A. baumanii 195N (a); conditions: Acinetobacter baumannii, AAC(3)Ia, ANT(3″)Ia, APH(3″)Ib, APH(3′)VI, APH(6)Id
Source text: as §1, §2, §3, §4, §5, §6, §7

[7] = tested on: P. aeruginosa PAO1; conditions: Pseudomonas aeruginosa, AMEs: WT
Source text: as §1, §2, §3, §4, §5, §6, §7

[8] = tested on: M. morgannii S49; conditions: Morganella morganii, AAC(3)-IId, ANT(3″), APH(3″)-Ib, APH(3′)-Ia, APH(6)-Id
Source text: as §1, §2, §3, §4, §5, §6, §7

Q: For `CN[C@@H]1[C@@H](O[C@H]2O[C@H](CO)[C@@H](N)[C@H](O)[C@H]2O)OC2C[C@@H](N)[C@@H](O[C@H]3[C@H](O)[C@@H](O)[C@H](N)C[C@@H]3N)OC2[C@@H]1O` (some centres unmarked) [Apramycin, apramycin, reference compound], which MIC90 [1] is on record?
A: The MIC90 was 8 µg/mL.

Q: And the MIC90 [2]?
A: The MIC90 was 32 µg/mL.

Q: What about the MIC90 [3] of the same compound?
A: The MIC90 was 32 µg/mL.

Q: What about the MIC90 [4] of the same compound?
A: The MIC90 was 8 µg/mL.

Q: And the MIC90 [5]?
A: Its MIC90 is 8 µg/mL.

Q: And the MIC90 [6]?
A: Its MIC90 is 32 µg/mL.

Q: What about the MIC90 [7] of the same compound?
A: Its MIC90 is 8 µg/mL.

Q: What about the MIC90 [8] of the same compound?
A: The MIC90 was 8 µg/mL.
